In one experiment the target is human Gal-3 (hGal-3) (Homo sapiens (Human), UniProt P17931). In words: Competitive binding assay: biotinylated hGal-3 binding to microplate-adsorbed asialofetuin (ASF). The following applies: IC50 values from several measurements given as geomean. The method, then: (§1) The inhibitory activity of compounds is determined in competitive binding assays. This spectrophotometric assay measures the binding of biotinylated human Gal-3 (hGal-3) or human Gal-1 (hGal-1), respectively, to a microplate-adsorbed glycoprotein, asialofetuin (ASF) (Proc Natl Acad Sci USA. 2013 Mar. 26; 110(13):5052-7.). Alternatively, and preferably, a human Gal-1 version in which all six cysteines are substituted by serines may be used.
(§2) Briefly, compounds are serially diluted in DMSO (working dilutions). ASF-coated 384well plates are supplemented with 22.8 μL/well of biotinylated hGal-3 or hGal-1 in assay buffer (i.e. 300-1000 ng/mL biotinylated hGal-3 or hGal-1) to which 1.2 μL of compound working dilutions are added and mixed.
(§3) Plates are incubated for 3 hours at 4° C., then washed with cold assay buffer (3×50 uL), incubated for 1 hour with 25 μL/well of a streptavidin-peroxidase solution (diluted in assay buffer to 80 ng/mL) at 4° C., followed by further washing steps with assay buffer (3×50 uL). Finally, 25 μL/well of ABTS substrate is added.
(§4) The calculated IC50 values may fluctuate depending on the daily assay performance. Fluctuations of this kind are known to those skilled in the art. IC50 values from several measurements are given as geomean values.

The target of another experiment is human Gal-1 (hGal-1) (Homo sapiens, UniProt P09382, C131S/C17S/C43S/C61S/C89S). In words: Competitive binding assay: biotinylated hGal-1 binding to microplate-adsorbed asialofetuin (ASF). Conditions: IC50 values from several measurements given as geomean. As to the method:
as §1, §2, §3, §4

Chain of human Gal-3 (hGal-3) (P17931 whole entry): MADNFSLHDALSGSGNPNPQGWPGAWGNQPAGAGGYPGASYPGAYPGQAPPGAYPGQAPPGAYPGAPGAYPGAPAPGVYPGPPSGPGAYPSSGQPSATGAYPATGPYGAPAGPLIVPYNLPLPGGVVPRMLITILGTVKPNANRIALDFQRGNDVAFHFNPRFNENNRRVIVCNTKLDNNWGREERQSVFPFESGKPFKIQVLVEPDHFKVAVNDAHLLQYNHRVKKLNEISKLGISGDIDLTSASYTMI

`CO[C@@H]1[C@@H](n2cc(-c3ccc(C)c(F)c3F)nn2)[C@@H](O)[C@@H](CO)O[C@@H]1Cc1cn(C2CC2C(C)C)nn1` (some centres unmarked) [Ex 1.1.17.]: the IC50 turned out to be 110 nM at human Gal-3 (hGal-3) and 5000 nM on human Gal-1 (hGal-1).
For the molecule `CO[C@@H]1[C@@H](n2cc(-c3ccc(C)c(F)c3F)nn2)[C@@H](O)[C@@H](CO)O[C@@H]1Cc1cn(C2(CO)CC(F)(F)C2)nn1` [Ex 1.1.18.], the figures for the IC50 on human Gal-3 (hGal-3) and on human Gal-1 (hGal-1) were 50 nM and 1470 nM, respectively.
For the molecule `CO[C@@H]1[C@@H](n2cc(-c3ccc(C)c(F)c3F)nn2)[C@@H](O)[C@@H](CO)O[C@@H]1Cc1cn([C@]2(C)C[C@H](O)C2)nn1` [Ex 1.1.19.], the IC50 turned out to be 20 nM at human Gal-3 (hGal-3) and 670 nM on human Gal-1 (hGal-1).
Taken in the same sequence, the figures for `CO[C@@H]1[C@@H](n2cc(-c3ccc(C)c(F)c3F)nn2)[C@@H](O)[C@@H](CO)O[C@@H]1Cc1cn(C2[C@H]3CCC[C@@H]23)nn1` (some centres unmarked) [Ex 1.1.20.] were 50 nM and 3440 nM.
Taken in the same sequence, the figures for `COCC1(n2cc(C[C@H]3O[C@H](CO)[C@H](O)[C@H](n4cc(-c5ccc(C)c(F)c5F)nn4)[C@H]3OC)nn2)COC1` [Ex 1.1.21.] were 40 nM and 840 nM.
`CO[C@@H]1[C@@H](n2cc(-c3ccc(C)c(F)c3F)nn2)[C@@H](O)[C@@H](CO)O[C@@H]1Cc1cn(C2(CCO)COC2)nn1` [Ex 1.1.22.]: the figures for the IC50 at human Gal-3 (hGal-3) and on human Gal-1 (hGal-1) were 40 nM and 690 nM, respectively.
As to `CO[C@@H]1[C@@H](n2cc(-c3ccc(C)c(F)c3F)nn2)[C@@H](O)[C@@H](CO)O[C@@H]1Cc1cn(C2(C)CC2)nn1` [Ex 1.1.23.], the IC50 turned out to be 20 nM on human Gal-3 (hGal-3) and 1060 nM at human Gal-1 (hGal-1).
For `CO[C@@H]1[C@@H](n2cc(-c3ccc(C)c(F)c3F)nn2)[C@@H](O)[C@@H](CO)O[C@@H]1Cc1cn(C23CC(C(F)(F)F)(C2)C3)nn1` [Ex 1.1.24.], the values for the IC50 at human Gal-3 (hGal-3) and on human Gal-1 (hGal-1) were 80 nM and 5040 nM, respectively.
As to `CO[C@@H]1[C@@H](n2cc(-c3ccc(C)c(F)c3F)nn2)[C@@H](O)[C@@H](CO)O[C@@H]1Cc1cn(C23CC(F)(C2)C3)nn1` [Ex 1.1.25.], the IC50 on human Gal-3 (hGal-3) was found to be 40 nM; at human Gal-1 (hGal-1) it was 3950 nM.
For `CO[C@@H]1[C@@H](n2cc(-c3ccc(C)c(F)c3F)nn2)[C@@H](O)[C@@H](CO)O[C@@H]1Cc1cn(C2CC3(CC3)C2)nn1` [Ex 1.1.26.], the IC50 on human Gal-3 (hGal-3) amounted to 60 nM; on human Gal-1 (hGal-1), 17100 nM.
Regarding `CO[C@@H]1[C@@H](n2cc(-c3ccc(C)c(F)c3F)nn2)[C@@H](O)[C@@H](CO)O[C@@H]1Cc1cn([C@]2(C)C[C@@H](O)C2)nn1` [Ex 1.1.27.], the values for the IC50 at human Gal-3 (hGal-3) and on human Gal-1 (hGal-1) were 30 nM and 1410 nM, respectively.
Taken in the same sequence, the figures for `CO[C@@H]1[C@@H](n2cc(-c3ccc(C)c(F)c3F)nn2)[C@@H](O)[C@@H](CO)O[C@@H]1Cc1cn(C2(C(F)F)COC2)nn1` [Ex 1.1.53., (2R,3R,4S,5R,6R)-4-(4-(2,3-difluoro-4-methylphenyl)-1H-1,2,3-triazol-1-yl)-6-((1-(3-(difluoromethyl)oxetan-3-yl)-1H-1,2,3-triazol-4-yl)methyl)-2-(hydroxymethyl)-5-methoxytetrahydro-2H-pyran-3-ol] were 20 nM and 520 nM.
Taken in the same sequence, the figures for `CO[C@@H]1[C@@H](n2cc(-c3ccc(C)c(F)c3F)nn2)[C@@H](O)[C@@H](CO)O[C@@H]1Cc1cn(C2(C(F)(F)F)COC2)nn1` [Ex 1.1.58.] were 30 nM and 800 nM.
`CO[C@@H]1[C@@H](n2cc(-c3ccc(C)c(F)c3F)nn2)[C@@H](O)[C@@H](CO)O[C@@H]1Cn1cc(C2(CO)CC2)nn1` [Ex 1.2.4.]: the IC50 came to 40 nM at human Gal-3 (hGal-3) and 2460 nM at human Gal-1 (hGal-1).
In the case of `CO[C@@H]1[C@@H](n2cc(-c3ccc(C)c(F)c3F)nn2)[C@@H](O)[C@@H](CO)O[C@@H]1Cn1cc(C2(C)COC2)nn1` [Ex 1.2.6.], the IC50 is 40 nM at human Gal-3 (hGal-3) and 2970 nM on human Gal-1 (hGal-1).
Regarding `CO[C@@H]1[C@@H](n2cc(-c3ccc(C)c(F)c3F)nn2)[C@@H](O)[C@@H](CO)O[C@@H]1Cn1cc(C2(O)CCC2)nn1` [Ex 1.2.31.], the results for the IC50 on human Gal-3 (hGal-3) and on human Gal-1 (hGal-1) were 60 nM and 3760 nM, respectively.
Take `CO[C@@H]1[C@@H](n2cc(-c3ccc(C)c(F)c3F)nn2)[C@@H](O)[C@@H](CO)O[C@@H]1Cn1cc(C2CCCC2)nn1` [Ex 1.2.32.]: the figures for the IC50 on human Gal-3 (hGal-3) and on human Gal-1 (hGal-1) were 60 nM and 5130 nM, respectively.
Consider `CO[C@@H]1[C@@H](n2cc(-c3ccc(C)c(F)c3F)nn2)[C@@H](O)[C@@H](CO)O[C@@H]1Cn1cc(C2(O)CCCC2)nn1` [Ex 1.2.33.], for which the IC50 came to 110 nM at human Gal-3 (hGal-3) and 5700 nM at human Gal-1 (hGal-1).
In the case of `CO[C@@H]1[C@@H](n2cc(-c3ccc(C)c(F)c3F)nn2)[C@@H](O)[C@@H](CO)O[C@@H]1Cn1cc(C(C)(C)O)nn1` [Ex 1.2.34., (2R,3R,4S,5R,6R)-4-(4-(2,3-Difluoro-4-methylphenyl)-1H-1,2,3-triazol-1-yl)-2-(hydroxymethyl)-6-((4-(2-hydroxypropan-2-yl)-1H-1,2,3-triazol-1-yl)methyl)-5-methoxytetrahydro-2H-pyran-3-ol], the IC50 was 80 nM at human Gal-3 (hGal-3) and 5330 nM at human Gal-1 (hGal-1).
With `CO[C@@H]1[C@@H](n2cc(-c3ccc(C)c(F)c3F)nn2)[C@@H](O)[C@@H](CO)O[C@@H]1Cn1cc(C2(O)CCOCC2)nn1` [Ex 1.2.35.], the IC50 on human Gal-3 (hGal-3) turned out to be 70 nM; on human Gal-1 (hGal-1) it was 4500 nM.
In the case of `CO[C@@H]1[C@@H](n2cc(-c3ccc(C)c(F)c3F)nn2)[C@@H](O)[C@@H](CO)O[C@@H]1Cn1cc(C2(O)CC2)nn1` [Ex 1.2.36.], the IC50 on human Gal-3 (hGal-3) stood at 80 nM; on human Gal-1 (hGal-1) it was 7710 nM.
For `COC1=C(N2CC(c3ccc(C)c(F)c3F)NN2)C(O)=C(CO)O[C@@H]1Cn1cc(C23CCC(NC(=O)OC(C)(C)C)(CC2)CC3)nn1` (some centres unmarked) [Ex 1.2.37.], in that order: 20 nM and 9400 nM.
On to `CCC1(c2cn(C[C@H]3O[C@H](CO)[C@H](O)[C@H](n4cc(-c5ccc(C)c(F)c5F)nn4)[C@H]3OC)nn2)COC1` [Ex 1.2.38.], for which the IC50 on human Gal-3 (hGal-3) worked out at 30 nM; on human Gal-1 (hGal-1), 2650 nM.
As for `CO[C@@H]1[C@@H](n2cc(-c3ccc(C)c(F)c3F)nn2)[C@@H](O)[C@@H](CO)O[C@@H]1Cc1cn(C23CCC(N)(CC2)CC3)nn1` [Ex 1.2.39.], the IC50 on human Gal-3 (hGal-3) worked out at 60 nM; on human Gal-1 (hGal-1), 11000 nM.
For `CO[C@@H]1[C@@H](n2cc(-c3ccc(Cl)c(F)c3F)nn2)[C@@H](O)[C@@H](CO)O[C@@H]1Cc1cn(C2(CO)CC2)nn1` [Ex 2.1.4.], in that order: 40 nM and 3050 nM.
Taken in the same sequence, the figures for `CO[C@@H]1[C@@H](n2cc(-c3ccc(Cl)c(F)c3F)nn2)[C@@H](O)[C@@H](CO)O[C@@H]1Cc1cn(C2(CO)CCCC2)nn1` [Ex 2.1.5.] were 60 nM and 2250 nM.
On to `CO[C@@H]1[C@@H](n2cc(-c3ccc(Cl)c(F)c3F)nn2)[C@@H](O)[C@@H](CO)O[C@@H]1Cc1cn(C2(C)COC2)nn1` [Ex 2.1.6.], for which the figures for the IC50 at human Gal-3 (hGal-3) and at human Gal-1 (hGal-1) were 40 nM and 760 nM, respectively.
Taken in the same sequence, the figures for `COCC1(n2cc(C[C@H]3O[C@H](CO)[C@H](O)[C@H](n4cc(-c5ccc(Cl)c(F)c5F)nn4)[C@H]3OC)nn2)CC1` [Ex 2.1.7.] were 60 nM and 2950 nM.
With `CO[C@@H]1[C@@H](n2cc(-c3ccc(Cl)c(F)c3F)nn2)[C@@H](O)[C@@H](CO)O[C@@H]1Cc1cn(C23CCC(O)(CC2)CC3)nn1` [Ex 2.1.8.], the IC50 on human Gal-3 (hGal-3) turned out to be 30 nM; on human Gal-1 (hGal-1) it was 4430 nM.
`CO[C@@H]1[C@@H](n2cc(-c3ccc(Cl)c(F)c3F)nn2)[C@@H](O)[C@@H](CO)O[C@@H]1Cc1cn(C(C)(C)CO)nn1` [Ex 2.1.9.]: the IC50 on human Gal-3 (hGal-3) was 40 nM; at human Gal-1 (hGal-1) it was 1670 nM.
Regarding `CO[C@@H]1[C@@H](n2cc(-c3ccc(Cl)c(F)c3F)nn2)[C@@H](O)[C@@H](CO)O[C@@H]1Cc1cn(C2(CO)CCC2)nn1` [Ex 2.1.11.], the half-maximal inhibitory concentration (IC50) on human Gal-3 (hGal-3) came to 50 nM; at human Gal-1 (hGal-1) it was 2510 nM.
Consider `CO[C@@H]1[C@@H](n2cc(-c3ccc(Cl)c(F)c3F)nn2)[C@@H](O)[C@@H](CO)O[C@@H]1Cc1cn(C23CC(C2)C3)nn1` [Ex 2.1.12.], for which the IC50 worked out at 50 nM at human Gal-3 (hGal-3) and 3250 nM at human Gal-1 (hGal-1).
As to `CO[C@@H]1[C@@H](n2cc(-c3ccc(Cl)c(F)c3F)nn2)[C@@H](O)[C@@H](CO)O[C@@H]1Cc1cn(C2(C)CCC2)nn1` [Ex 2.1.13.], the IC50 at human Gal-3 (hGal-3) is 20 nM; on human Gal-1 (hGal-1) it was 690 nM.
Taken in the same sequence, the figures for `CO[C@@H]1[C@@H](n2cc(-c3ccc(Cl)c(F)c3F)nn2)[C@@H](O)[C@@H](CO)O[C@@H]1Cc1cn(C23CC(C)(C2)C3)nn1` [Ex 2.1.14.] were 50 nM and 3450 nM.
For `CO[C@@H]1[C@@H](n2cc(-c3ccc(Cl)c(F)c3F)nn2)[C@@H](O)[C@@H](CO)O[C@@H]1Cc1cn(C2(C)CC(F)(F)C2)nn1` [Ex 2.1.15.], in that order: 50 nM and 1710 nM.
Regarding `CO[C@@H]1[C@@H](n2cc(-c3ccc(Cl)c(F)c3F)nn2)[C@@H](O)[C@@H](CO)O[C@@H]1Cc1cn(C2CC3(COC3)C2)nn1` [Ex 2.1.16.], the IC50 worked out at 90 nM at human Gal-3 (hGal-3) and 5930 nM at human Gal-1 (hGal-1).
Turning to `CO[C@@H]1[C@@H](n2cc(-c3ccc(Cl)c(F)c3F)nn2)[C@@H](O)[C@@H](CO)O[C@@H]1Cc1cn(C2CC2C(C)C)nn1` (some centres unmarked) [Ex 2.1.17.], the values for the IC50 at human Gal-3 (hGal-3) and on human Gal-1 (hGal-1) were 160 nM and 11500 nM, respectively.

The values are drawn from patent US20240109930A1, “TRIAZOLYL-METHYL SUBSTITUTED ALPHA-D-GALACTOPYRANOSIDE DERIVATIVES” (Idorsia Pharmaceuticals Ltd, priority 2021, published 2024).
